These results are taken from article PMC11872507, “Lasso peptides sviceucin and siamycin I exhibit anti-virulence activity and restore vancomycin effectiveness in vancomycin-resistant pathogens” (iScience, 2025).

SMILES strings stand for the structures. ≈ marks a conversion by molar mass, not a printed value.

For assay [1], the system named is E. faecalis V583. As to the kind of experiment: Checkerboard broth microdilution. The assay is classed as cell-based. The following applies: Enterococcus faecalis, control, vancomycin alone. An excerpt:
Since sviceucin and siamycin I inhibit signal transduction of the FsrAC TCS in vivo, we next wondered if the lasso peptides would also target other TCSs. In E. faecalis, the VanRS TCS regulates resistance to vancomycin, an antibiotic of clinical importance. The minimum inhibitory concentrations (MICs) of this antibiotic in combination with the lasso peptides were thus determined for clinically relevant Enterococcus and S. aureus strains from our in-house collection. The chosen concentrations of the peptides (2 μM of siamycin I and 10 μM of sviceucin) are the lowest subinhibitory concentrations that allow the maximum synergy with vancomycin, as determined by the checkerboard method on the E. faecalis V583 strain (Table S1).
On the technique in general: In broth dilution the organism is exposed to a series of concentrations in liquid medium.

A further assay relates to E. faecalis merz96. Nature of the assay: microbe, parasite or virus in culture. The assay is classed as cell-based, Enterococcus faecalis. The following applies: Enterococcus faecalis, MERZ96, read-out: Vancomycin MIC.
The subject of the next assay is V583 vanSB^D398E. As to the kind of experiment: Vancomycin MIC, microdilution. The assay is classed as cell-based. The following applies: Enterococcus faecalis; vancomycin alone (control).
The subject of another assay is S. aureus T-SAR12 VRSA.A. Nature of the assay: microbe, parasite or virus in culture. The assay is classed as cell-based, Staphylococcus aureus. The following applies: Staphylococcus aureus, VRSA, read-out: Vancomycin MIC. The procedure: (§1) The MIC of vancomycin was determined by the microdilution method described in the guidelines of the European Committee on Antimicrobial Susceptibility Testing (EUCAST 2024, v14.0 Breakpoint Tables).[58] For enterococci, GM17 medium was used instead of CAMH medium since enterococci cannot degrade starch, the main carbohydrate of MH medium. 2-fold serial dilutions of the tested antibiotic were performed to obtain concentrations ranging from 0.5 to 512 μg/mL. LP were then added to the wells at the desired concentration. The medium was inoculated with a final inoculum of 5 × 10^5 CFU/mL. The MIC is the lowest concentration that prevents visible in vitro growth.

Another assay concerns S. aureus T-SAR12 VRSA.B. As to the kind of experiment: microbe, parasite or virus in culture. The class given is cell-based, Staphylococcus aureus. The settings on record: Staphylococcus aureus, VRSA, read-out: Vancomycin MIC. The procedure:
as §1

Another assay has as its system V583 ΔvanB::vanA. As to the kind of experiment: Vancomycin MIC, microdilution. The class given is cell-based. The settings on record: Enterococcus faecalis; vancomycin alone (control). As for the experimental part: (§2) To further support this, we investigated the origin of the different activity spectra of sviceucin and siamycin I between VanA- and VanB-type vancomycin resistance. We first replaced vanSB by vanS in the VanB-type strain E. faecalis V583. VanS-VanRB strain was sensitive to vancomycin (MIC = 2 μg/mL), probably because of an impaired signal transduction between VanS and VanRB. To bypass this issue, we replaced the vanRBSB-PvanYB fragment by the vanRS-PvanH fragment from a VanA-type operon, resulting in a VanA-type transduction system fused to VanB-type resistance genes.

The test system of assay [2] is V583 ΔvanSB-vanRB::vanS-vanR. Nature of the assay: Vancomycin MIC, microdilution. The class given is cell-based. The following applies: Enterococcus faecalis; vancomycin alone (control); VanA-type transduction system, VanB-type resistance genes. As for the experimental part: as §2
In the next assay the test system is VanS-VanRB strain. Nature of the assay: Vancomycin MIC, microdilution. The class given is cell-based. The settings on record: Enterococcus faecalis; vanSB replaced by vanS in V583. The procedure:
as §2

In the next assay the test system is Svic1. Nature of the assay: Quantification of D-Ala-D-Lac muropeptides by LCMS. The assay is classed as cell-based, Enterococcus faecalis. The settings on record: vancomycin alone, 2 μg/mL; means of at least two biological replicates. As for the experimental part: (§3) Extraction of muropeptides was performed as previously described[64] with modifications. Bacteria were cultured overnight in GM17 medium supplemented with 2 μg/mL of vancomycin (Merck, USA), 10 μM of sviceucin, or 2 μM of siamycin I. Bacteria were pelleted by centrifugation for 5 min at 10000 rpm and then resuspended in 1 mL of 0.1 M Tris-HCl (pH 6.8), 0.25% SDS. Samples were boiled for 20 min in a heating block (Biolock Scientific, USA) and then centrifuged for 5 min at 10000 rpm. The pellets were washed twice with 1 mL of cold ultrapure water before sonication for 30 min (Branson 1800 Cleaner, USA). 500 μL of DNase 15 μg/mL and RNase 60 μg/mL (Sigma-Aldrich, USA) were added to each sample then incubated at 37°C for 60 min. […] Pellets were resuspended in 12,5 mM sodium phosphate buffer (pH 5.5), then muropeptides concentration was determined and standardized to an OD578 of 3. […]
(§4) LCMS analysis was performed on an ultra-high performance LC system (Ultimate 3000 RSLC, Thermo Scientific, USA) coupled to a high-resolution electrospray ionization-quadrupole-time of flight mass spectrometer (MaXis II ETD, Bruker Daltonics, USA). […] Mass data were analyzed by Data Analysis 4.4 (Bruker Daltonics, USA). For quantification, the m/z corresponding to singly- and doubly-charged species of monomer, as well as doubly- and triply-charged species of dimers of muropeptides were manually searched. […]

For assay [3], the system named is E. faecalis V583. Nature of the assay: Quantification of D-Ala-D-Lac muropeptides by LCMS. The class given is cell-based, Enterococcus faecalis. The settings on record: vancomycin alone, 2 μg/mL; means of at least two biological replicates. The procedure: as §3, §4
The subject of assay [4] is V583 ΔvanSBmalT::vanR^D53E. Nature of the assay: Vancomycin MIC, microdilution. The class given is cell-based. The following applies: Enterococcus faecalis; vancomycin alone (control); phosphomimetic VanR^D53E. As for the experimental part: as §1
The subject of the next assay is S. aureus 16038 (VISA). Nature of the assay: microbe, parasite or virus in culture. The class given is cell-based, Staphylococcus aureus. The following applies: Staphylococcus aureus, VISA, read-out: Vancomycin MIC.
Another assay concerns E. faecium 1 231 410. Nature of the assay: microbe, parasite or virus in culture. The assay is classed as cell-based, Enterococcus faecium. The following applies: Enterococcus faecium, 1231410, read-out: Vancomycin MIC.

On to `CN[C@H](CC(C)C)C(=O)N[C@H]1C(=O)N[C@@H](CC(N)=O)C(=O)N[C@H]2C(=O)N[C@H]3C(=O)N[C@H](C(=O)N[C@H](C(=O)O)c4cc(O)cc(O)c4-c4cc3ccc4O)[C@H](O)c3ccc(c(Cl)c3)Oc3cc2cc(c3O[C@@H]2O[C@H](CO)[C@@H](O)[C@H](O)[C@H]2O[C@H]2C[C@](C)(N)[C@H](O)[C@H](C)O2)Oc2ccc(cc2Cl)[C@H]1O` [Vancomycin], for which the MIC is 32 µg/mL in the assay with E. faecalis V583 [1]; 32 µg/mL (≈ 22.1 µM) in the assay with E. faecalis merz96; 128 µg/mL (≈ 88.3 µM) in the assay with V583 vanSB^D398E; above 512 µg/mL in the assay with S. aureus T-SAR12 VRSA.A; 64 µg/mL (≈ 44.2 µM) in the assay on S. aureus T-SAR12 VRSA.B; 32 µg/mL (≈ 22.1 µM) against V583 ΔvanB::vanA. The MIC in assay [2] was found to be 32 µg/mL (≈ 22.1 µM); against VanS-VanRB strain it was 2 µg/mL (≈ 1.38 µM); in [4], 32 µg/mL (≈ 22.1 µM); in the assay with S. aureus 16038 (VISA), 4 µg/mL (≈ 2.76 µM); with E. faecium 1 231 410 it was 128 µg/mL (≈ 88.3 µM). In addition, the “percentage of muropeptides D-Ala-D-Lac” value with Svic1 was 62.0%; in the assay with E. faecalis V583 [3], 48.3%.
